# Laboratory results: patent US12590121B2, “Peptide compound with repetitive sequences” (KING ABDULLAH UNIVERSITY OF SCIENCE AND TECHNOLOGY, priority 2020, dated 2026)
# Non-standard residues stand in square brackets, D forms with d. Residues, ends and D or L forms follow the SMILES beside them. Cha = N[C@@H](CC1CCCCC1)C(=O)O
# How the values were obtained:
# [1] = Peptide gelation studies (vial inversion method); format: physicochemical; conditions: for gelation time: 1×PBS buffer; for minimum gelation concentration: as used for 3D cell culture
# Experimental: The peptide powder is dissolved in 0.90 mL of Milli-Q® water and vortexed until a clear and homogeneous solution is observed. Then 0.10 mL of 10×PBS buffer (w/o Ca^2+ and Mg^2+) is added to the peptide solution. The glass vial is kept undisturbed, and the hydrogel formation is observed using the vial inversion method. The time and minimum concentration at which each peptide has formed a hydrogel are noted.
# [2] = Viscoelastic characterization: mechanical stiffness of peptide hydrogels (rheometer); format: physicochemical
# Experimental: The viscoelastic characteristics of peptide hydrogels, including the mechanical stiffness and viscosity, are analyzed using TA Ares-G2 Rheometer equipped with advanced Peltier system (APS). The mechanical stiffness of the peptide gels is measured using an 8 mm parallel plate with a gap of 1.8 mm, between the upper and lower plates, and at 22° C. The hydrogels are prepared, one day before the measurement, by mixing 135 μl of peptide solution, and 15 μl of 10×PBS inside a 9 mm internal diameter Sigmacote® coated glass casting ring. The rings are then kept inside Petri dishes at room temperature with water surrounding and tightly sealed to avoid dehydration. For each peptide, six replicates are prepared to control the accuracy of the measurements. The stiffness is analyzed through three successive tests, which are time-sweep, frequency-sweep, and amplitude-sweep. Time-sweep is first performed for 5 minutes with angular frequency and a strain of 1 rad/s and 0.1%, respectively. A frequency sweep is subsequently performed on the sample for a range of angular frequency of 0.1-100 rad/s with the same strain of 0.1%. The tests are completed with the amplitude sweep by applying a gradual increase of strain from 0.01% to 100% at 1 rad/s angular frequency.
# [3] = Viscosity of peptide solution before and after gelation (rheometer, flow experiment); format: physicochemical
# Experimental: The viscosity of the peptide solution before and after gelation is determined using the same rheometer, 25 mm parallel plate geometry, and a gap of 0.5 mm at 25° C. For the peptide solution, 250 μl of 13 mg/mL peptide solution is dropped on the Peltier plate and measured. For peptide gel samples, the peptide solution and 10×PBS buffer are mixed with the ratio of 1:10 on the Peltier plate and directly measured. The flow experiment is set up by starting the shear rate from 0.1 to 1500 s-1 for a 200-seconds duration. The value of the shear rate that we choose for our printing system is calculated using the equation below: 51
# [formula] • γ: shear rate (s−1); Q: flow rate (95 μL/s); d: diameter of needle (0.514 mm).
# [4] = test system: human dermal fibroblasts (hDF); format: cell-based
# Experimental: hDF is used in bioprinting experiments. Each cell type is cultured in its complete growth media, as described before, and cells at passages 4-8 are used in printing experiments. For bioprinting, hDF is mixed with PBS at a final concentration of 5×10^6 and 8×10^6 cells/ml, respectively, and loaded into the microfluidic tubing of the robotic arm bioprinter. In the printing process, the flow rates are 10 μl/min, 55 μl/min, and 8 μl/min for cells, peptide solution, and 5×PBS, respectively. Different cell-laden structures are printed including cuboids with 10 mm edges and 2.6 mm height, and cylinders with 10 mm diameter, and a height of 10 mm. After printing, the printed cell-laden constructs are placed in the CO2 incubator for 5 min before the addition of complete growth media. The printed cell-laden constructs are placed in standard conditions (37° C., 5% CO2, and 95% relative humidity), and the media are changed every three days.
# LIVE/DEAD® Cell Viability/Cytotoxicity Kit (ThermoFisher®, USA) is used to assess the viability of cells within the 3D printed constructs. The same protocol, as described earlier, is followed except for increasing the incubation time to 1 hour. The viability of cells is assessed immediately after printing, within 1 hour, designated as day 0 and at days 3, 7, 17 and 24 post-printing. For each time point, two cell-laden constructs are analyzed, and images are taken from different areas of the construct, including the center, edges, top, and bottom. Stained printed cell-laden constructs are imaged using an inverted laser scanning confocal microscope (Zeiss™ LSM 880 Inverted Confocal Microscope, Germany). The number of live and dead cells are counted using imageJ software, and the percentage of cell viability is calculated as the average ratio of live to total cells.
# [5] = gel, 13 mg/ml, shear rate 29.7 s^−1
Compound,gelation time ([1]; 1 mg/ml),gelation time ([1]; 10 mg/ml),Loss Modulus (G′) ([2]; 1 mg/mL hydrogel),Storage Modulus (G′) ([2]; 1 mg/mL hydrogel),tan δ (G″/G′) ([2]; 1 mg/mL hydrogel),Loss Modulus (G′) ([2]; 2 mg/mL hydrogel),Storage Modulus (G′) ([2]; 2 mg/mL hydrogel),tan δ (G″/G′) ([2]; 2 mg/mL hydrogel),Loss Modulus (G′) ([2]; 5 mg/mL hydrogel),Storage Modulus (G′) ([2]; 5 mg/mL hydrogel),tan δ (G″/G′) ([2]; 5 mg/mL hydrogel),Loss Modulus (G′) ([2]; 8 mg/mL hydrogel),Storage Modulus (G′) ([2]; 8 mg/mL hydrogel),tan δ (G″/G′) ([2]; 8 mg/mL hydrogel),Loss Modulus (G′) ([2]; 10 mg/mL hydrogel),Storage Modulus (G′) ([2]; 10 mg/mL hydrogel),gelation time ([1]; 2 mg/ml),gelation time ([1]; 3 mg/ml),gelation time ([1]; 5 mg/ml),gelation time ([1]; 20 mg/ml),further results
"CC[C@H](C)[C@H](NC(C)=O)C(=O)N[C@H](C(=O)N[C@@H](Cc1ccccc1)C(=O)N[C@@H](CCCCN)C(N)=O)[C@@H](C)CC [IIFK, Ac-Ile-Ile-Phe-Lys-NH2] (Ac-IIFK-NH2)",less than 2.5 h,less than 3 min,0.13 ± 0.04 kPa,1.25 ± 0.86 kPa,0.10,1.31 ± 0.12 kPa,14.45 ± 1.37 kPa,0.09,2.39 ± 0.11 kPa,27.26 ± 1.30 kPa,0.09,5.00 ± 0.31 kPa,49.74 ± 5.02 kPa,0.10,9.04 ± 0.56 kPa,94.18 ± 7.12 kPa,–,–,–,–,"minimum gelation concentration [1]: 2 mg/mL; tan δ (G″/G′) ([2]; 10 mg/mL hydrogel): 0.10; Loss Modulus (G′) ([2]; 13 mg/mL hydrogel): 8.90 ± 0.36 kPa; Storage Modulus (G′) ([2]; 13 mg/mL hydrogel): 108.21 ± 5.02 kPa; tan δ (G″/G′) ([2]; 13 mg/mL hydrogel): 0.08; Viscosity [3, 5]: 0.56 Pa · s; Viscosity ([3]; solution, 13 mg/mL): 0.09 Pa · s; cell viability in the center versus the edge of the filled cube structure [4]: no difference"
"CC[C@H](C)[C@H](NC(C)=O)C(=O)N[C@H](C(=O)N[C@@H](CC1CCCCC1)C(=O)N[C@@H](CCCCN)C(N)=O)[C@@H](C)CC [IIZK, Ac-Ile-Ile-Cha-Lys-NH2] (Ac-II[Cha]K-NH2)",less than 7 min,–,0.88 ± 0.04 kPa,6.52 ± 0.18 kPa,0.13,2.02 ± 0.09 kPa,16.82 ± 0.72 kPa,0.12,7.08 ± 0.59 kPa,64.74 ± 4.89 kPa,0.11,10.91 ± 0.44 kPa,89.40 ± 1.86 kPa,0.12,15.54 ± 0.68 kPa,134.04 ± 5.99 kPa,–,–,–,–,"minimum gelation concentration [1]: 1 mg/mL; tan δ (G″/G′) ([2]; 10 mg/mL hydrogel): 0.12; Loss Modulus (G′) ([2]; 13 mg/mL hydrogel): 37.76 ± 2.38 kPa; Storage Modulus (G′) ([2]; 13 mg/mL hydrogel): 271.34 ± 35.09 kPa; tan δ (G″/G′) ([2]; 13 mg/mL hydrogel): 0.14; Viscosity [3, 5]: 0.47 Pa · s; Viscosity ([3]; solution, 13 mg/mL): 0.03 Pa · s; cell viability in the center versus the edge of the filled cube structure [4]: slightly lower"
"CC[C@H](C)[C@H](NC(C)=O)C(=O)N[C@@H](CC1CCCCC1)C(=O)N[C@@H](CC1CCCCC1)C(=O)N[C@@H](CCCCN)C(N)=O [IZZK, Ac-Ile-Cha-Cha-Lys-NH2] (Ac-I[Cha][Cha]K-NH2)",–,–,0.36 ± 0.08 kPa,3.71 ± 0.19 kPa,0.10,1.44 ± 0.07 kPa,15.53 ± 0.74 kPa,0.09,11.60 ± 0.51 kPa,85.87 ± 6.50 kPa,0.14,29.70 ± 1.54 kPa,193.09 ± 10.13 kPa,0.15,39.71 ± 1.50 kPa,222.13 ± 8.16 kPa,–,–,–,–,"tan δ (G″/G′) ([2]; 10 mg/mL hydrogel): 0.18; Loss Modulus (G′) ([2]; 13 mg/mL hydrogel): 54.56 ± 1.46 kPa; Storage Modulus (G′) ([2]; 13 mg/mL hydrogel): 314.91 ± 10.10 kPa; tan δ (G″/G′) ([2]; 13 mg/mL hydrogel): 0.17; Viscosity [3, 5]: 0.48 Pa · s; Viscosity ([3]; solution, 13 mg/mL): 0.06 Pa · s; cell viability in the center versus the edge of the filled cube structure [4]: slightly lower"
"FFFK: ultrashort amphiphilic peptide, one-letter amino acid sequence (Ac-FFFK-NH2)",–,<2 min,–,–,–,–,–,–,–,–,–,–,–,–,–,–,<15 min,<10 min,<5 min,–,gelation time ([1]; 4 mg/ml): <5 min; gelation time (in words) ([1]; 20 mg/ml): simultaneously
"FFIK: ultrashort amphiphilic peptide, one-letter amino acid sequence (Ac-FFIK-NH2)",–,<5 min,–,–,–,–,–,–,–,–,–,–,–,–,–,–,<10 min,<10 min,<5 min,<5 min,"gelation (in words) ([1]; 1 mg/ml, in 1 h): Does not gel"
"FIIK: ultrashort amphiphilic peptide, one-letter amino acid sequence (Ac-FIIK-NH2)",<15 min,<5 min,–,–,–,–,–,–,–,–,–,–,–,–,–,–,<5 min,<10 min,<10 min,<5 min,gel quality (in words) ([1]; 1 mg/ml): Soft gel
"IFFK: ultrashort amphiphilic peptide, one-letter amino acid sequence (Ac-IFFK-NH2)",>60 min,<5 min,–,–,–,–,–,–,–,–,–,–,–,–,–,–,<10 min,<5 min,<5 min,<5 min,gel quality (in words) ([1]; 1 mg/ml): Slightly; gelation time ([1]; 4 mg/ml): <5 min
"ZIIK: ultrashort amphiphilic peptide, one-letter sequence; Z is cyclohexylalanine (Ac-[Cha]IIK-NH2; SMILES CC[C@H](C)[C@H](NC(=O)[C@H](CC1CCCCC1)NC(C)=O)C(=O)N[C@H](C(=O)N[C@@H](CCCCN)C(N)=O)[C@@H](C)CC)",<60 min,<5 min,–,–,–,–,–,–,–,–,–,–,–,–,–,–,<10 min,–,<10 min,<5 min,gel quality (in words) ([1]; 1 mg/ml): Very soft gel
